The assay has as its target Potassium voltage-gated channel subfamily KQT member 1 (Homo sapiens) (UniProt P51787). Description: KCNQ1 potassium current enhancement – automated patch clamp, CHO cells, SAR follow-up (AID 588673).

Active and inactive are the calls of the source.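 How the source made its calls: active means raises KCNQ1 potassium channel current at one or more doses and a concentration response curve can be fitted; inactive means no activation at any dose, or no fittable curve.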

Chain of Potassium voltage-gated channel subfamily KQT member 1 (Homo sapiens) (P51787 whole entry, looked up): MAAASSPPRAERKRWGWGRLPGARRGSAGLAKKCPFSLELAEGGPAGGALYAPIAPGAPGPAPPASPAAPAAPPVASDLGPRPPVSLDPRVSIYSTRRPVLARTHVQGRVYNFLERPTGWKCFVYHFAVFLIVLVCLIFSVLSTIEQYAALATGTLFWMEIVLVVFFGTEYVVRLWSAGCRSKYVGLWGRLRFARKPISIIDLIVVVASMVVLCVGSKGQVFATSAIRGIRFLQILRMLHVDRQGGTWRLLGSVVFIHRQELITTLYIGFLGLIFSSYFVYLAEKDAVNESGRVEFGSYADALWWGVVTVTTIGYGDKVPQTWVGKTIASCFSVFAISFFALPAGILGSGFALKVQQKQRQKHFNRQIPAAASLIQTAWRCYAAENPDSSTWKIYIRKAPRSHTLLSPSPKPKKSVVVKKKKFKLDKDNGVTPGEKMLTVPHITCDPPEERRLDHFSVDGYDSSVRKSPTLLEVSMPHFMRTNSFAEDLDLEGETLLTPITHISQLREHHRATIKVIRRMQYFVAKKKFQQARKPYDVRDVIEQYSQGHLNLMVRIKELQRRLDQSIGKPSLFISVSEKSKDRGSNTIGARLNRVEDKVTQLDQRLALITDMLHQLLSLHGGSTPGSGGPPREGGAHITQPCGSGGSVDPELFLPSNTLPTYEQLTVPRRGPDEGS

Take `COc1ccc(-c2csc(NC(=O)[C@@H]3CCCCN3S(=O)(=O)c3ccccc3)n2)cc1`: the “current activation, percent increase” value (at 30 µM (top of the series)) was “inactive”.
With `COc1ccc(-c2csc(NC(=O)[C@H]3CCCCN3S(=O)(=O)c3ccccc3)n2)cc1`, the IC50, inhibition of current is 1.39 µM.
The same measure, in the same setting: the figure for `COc1ccc(-c2csc(NC(=O)C3CCCCN3S(=O)(=O)c3ccccc3)n2)cc1` (stereo not drawn) is 1.66 µM.

Values taken from PubChem BioAssay AID588673 (Johns Hopkins Ion Channel Center, 2011).
